Reference: PubChem BioAssay (NCI)
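GI50: concentration for 50% inhibition of growth. At the TGI there is no net growth.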

Experiments:
Experiment in all cases: DTP human tumour cell line panel, 384-well format
SW-620 colon = system: SW-620 colon
UACC-257 melanoma = system: UACC-257 melanoma
OVCAR-4 ovarian = system: OVCAR-4 ovarian
NCI-H322M lung = system: NCI-H322M lung
M14 melanoma = system: M14 melanoma
MDA-MB-435 melanoma = system: MDA-MB-435 melanoma
NCI-H460 NSCLC = system: NCI-H460 NSCLC
IGROV1 ovarian = system: IGROV1 ovarian
SK-MEL-5 melanoma = system: SK-MEL-5 melanoma
SN12C renal = system: SN12C renal
HCC-2998 colon = system: HCC-2998 colon
NCI-H522 lung = system: NCI-H522 lung
SF-295 CNS = system: SF-295 CNS
HOP-92 NSCLC = system: HOP-92 NSCLC
SR leukemia = system: SR leukemia
UACC-62 melanoma = system: UACC-62 melanoma
MDA-MB-468 breast = system: MDA-MB-468 breast
HOP-62 NSCLC = system: HOP-62 NSCLC
OVCAR-8 ovarian = system: OVCAR-8 ovarian
HCT-116 colon = system: HCT-116 colon
ACHN renal = system: ACHN renal
MOLT-4 leukemia = system: MOLT-4 leukemia
CCRF-CEM leukemia = system: CCRF-CEM leukemia
MDA-MB-231 breast = system: MDA-MB-231 breast
CAKI-1 renal = system: CAKI-1 renal
HCT-15 colon = system: HCT-15 colon
786-0 renal = system: 786-0 renal
SK-OV-3 ovarian = system: SK-OV-3 ovarian
NCI/ADR-RES ovarian = system: NCI/ADR-RES ovarian
PC-3 prostate = system: PC-3 prostate
HS 578T breast = system: HS 578T breast
LOX IMVI melanoma = system: LOX IMVI melanoma
HL-60(TB) leukemia = system: HL-60(TB) leukemia
MALME-3M melanoma = system: MALME-3M melanoma
OVCAR-3 ovarian = system: OVCAR-3 ovarian
NCI-H226 lung = system: NCI-H226 lung
SK-MEL-28 melanoma = system: SK-MEL-28 melanoma
SF-268 CNS = system: SF-268 CNS
TK-10 renal = system: TK-10 renal
MCF7 breast = system: MCF7 breast
A498 renal = system: A498 renal
NCI-H23 lung = system: NCI-H23 lung
OVCAR-5 ovarian = system: OVCAR-5 ovarian
SNB-75 CNS = system: SNB-75 CNS
BT-549 breast = system: BT-549 breast
A549 NSCLC = system: A549 NSCLC
SF-539 CNS = system: SF-539 CNS
UO-31 renal = system: UO-31 renal
U251 glioblastoma = system: U251 glioblastoma
RPMI-8226 leukemia = system: RPMI-8226 leukemia
HT29 colon = system: HT29 colon
RXF 393 renal = system: RXF 393 renal
SNB-19 CNS = system: SNB-19 CNS
KM12 colon = system: KM12 colon
DU-145 prostate = system: DU-145 prostate
K-562 leukemia = system: K-562 leukemia
T-47D breast = system: T-47D breast
COLO 205 colon = system: COLO 205 colon
EKVX NSCLC = system: EKVX NSCLC

## Cc1c(C(=O)Nc2ccc(Oc3ccnc4cc(OCC(C)(C)O)ccc34)c(F)c2)c(=O)n(-c2ccccc2)n1C
SW-620 colon
  GI50: 4.53 µM
  TGI: > 100 µM
UACC-257 melanoma
  GI50: 3.24 µM
  TGI: 22 µM
OVCAR-4 ovarian
  GI50: 4.8 µM
  TGI: > 100 µM
NCI-H322M lung
  GI50: 3.34 µM
  TGI: 21.8 µM
M14 melanoma
  GI50: 2.68 µM
  TGI: > 22.7 µM
MDA-MB-435 melanoma
  GI50: 3.31 µM
  TGI: > 31.4 µM
NCI-H460 NSCLC
  GI50: 2.62 µM
  TGI: 6.33 µM
IGROV1 ovarian
  GI50: 4.3 µM
  TGI: > 100 µM
SK-MEL-5 melanoma
  GI50: 1.89 µM
  TGI: 4.77 µM
SN12C renal
  GI50: 0.484 µM
  TGI: 4.82 µM
HCC-2998 colon
  GI50: > 31.1 µM
  TGI: > 100 µM
NCI-H522 lung
  GI50: 3.74 µM
  TGI: > 36.9 µM
SF-295 CNS
  GI50: 1.37 µM
  TGI: > 23.6 µM
HOP-92 NSCLC
  GI50: 2.36 µM
  TGI: > 25.8 µM
SR leukemia
  GI50: 2 µM
  TGI: 3.82 µM
UACC-62 melanoma
  GI50: 1.41 µM
  TGI: 4.21 µM
MDA-MB-468 breast
  GI50: 1.62 µM
  TGI: 4.86 µM
HOP-62 NSCLC
  GI50: 2.34 µM
  TGI: > 22.5 µM
OVCAR-8 ovarian
  GI50: 3.69 µM
  TGI: > 88.7 µM
HCT-116 colon
  GI50: 3.97 µM
  TGI: > 100 µM
ACHN renal
  GI50: 3.39 µM
  TGI: > 100 µM
MOLT-4 leukemia
  GI50: 1.46 µM
  TGI: 3.66 µM
CCRF-CEM leukemia
  GI50: 2.61 µM
  TGI: 7.97 µM
MDA-MB-231 breast
  GI50: 3.26 µM
  TGI: > 30.4 µM
CAKI-1 renal
  GI50: 0.963 µM
  TGI: > 39 µM
HCT-15 colon
  GI50: 4.13 µM
  TGI: > 69.6 µM
786-0 renal
  GI50: 5.8 µM
  TGI: 96.9 µM
SK-OV-3 ovarian
  GI50: 3.51 µM
  TGI: > 50.8 µM
NCI/ADR-RES ovarian
  GI50: 4.13 µM
  TGI: > 44.1 µM
PC-3 prostate
  GI50: 3.76 µM
  TGI: > 100 µM
HS 578T breast
  GI50: 1.86 µM
  TGI: 4.85 µM
LOX IMVI melanoma
  GI50: 2.65 µM
  TGI: > 44 µM
HL-60(TB) leukemia
  GI50: 3.5 µM
  TGI: 6.78 µM
MALME-3M melanoma
  GI50: 2.11 µM
  TGI: 5.14 µM
OVCAR-3 ovarian
  GI50: 4.83 µM
  TGI: > 100 µM
NCI-H226 lung
  GI50: 1.93 µM
  TGI: 7.08 µM
SK-MEL-28 melanoma
  GI50: 3.58 µM
  TGI: > 30.3 µM
SF-268 CNS
  GI50: 3.23 µM
  TGI: > 19.7 µM
TK-10 renal
  GI50: 5.2 µM
  TGI: > 100 µM
MCF7 breast
  GI50: 3.5 µM
  TGI: > 38.9 µM
A498 renal
  GI50: 3.58 µM
  TGI: > 37.7 µM
NCI-H23 lung
  GI50: 1.52 µM
  TGI: 7.35 µM
OVCAR-5 ovarian
  GI50: 3.04 µM
  TGI: > 100 µM
SNB-75 CNS
  GI50: 2.68 µM
  TGI: > 28.1 µM
BT-549 breast
  GI50: > 23.7 µM
  TGI: > 65.3 µM
A549 NSCLC
  GI50: 4.26 µM
  TGI: > 100 µM
SF-539 CNS
  GI50: 3.68 µM
  TGI: > 100 µM
UO-31 renal
  GI50: 4.31 µM
  TGI: > 100 µM
U251 glioblastoma
  GI50: 4.93 µM
  TGI: > 100 µM
RPMI-8226 leukemia
  GI50: 3.03 µM
  TGI: 7.45 µM
HT29 colon
  GI50: 2.55 µM
  TGI: > 100 µM
RXF 393 renal
  GI50: 1.66 µM
  TGI: 4.11 µM
SNB-19 CNS
  GI50: 4.78 µM
  TGI: > 100 µM
KM12 colon
  GI50: 0.258 µM
  TGI: > 100 µM
DU-145 prostate
  GI50: 6.27 µM
  TGI: > 100 µM
K-562 leukemia
  GI50: 0.152 µM
  TGI: 0.391 µM
T-47D breast
  GI50: 1.57 µM
  TGI: 4.72 µM
COLO 205 colon
  GI50: 2.26 µM
  TGI: 6.93 µM
EKVX NSCLC
  GI50: 2.61 µM
  TGI: 8.53 µM
